Laboratory results published in PubChem BioAssay (NCI).
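Five compound concentrations were applied to cells in 96-well plates for 48 hours; endpoints were derived by simple linear interpolation of the resulting dose-response curve. TGI denotes the concentration required for complete inhibition of growth.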

Experiments:
Experiment in all cases: NCI tumour cell line growth inhibition, 48 h
SK-OV-3 ovarian = test system: SK-OV-3 ovarian
RPMI-8226 leukemia = test system: RPMI-8226 leukemia
OVCAR-5 ovarian = test system: OVCAR-5 ovarian
SR leukemia = test system: SR leukemia
PC-3 prostate = test system: PC-3 prostate
HS 578T breast = test system: HS 578T breast
ACHN renal = test system: ACHN renal
SK-MEL-5 melanoma = test system: SK-MEL-5 melanoma
MDA-MB-435 = test system: MDA-MB-435
MALME-3M melanoma = test system: MALME-3M melanoma
U251 CNS = test system: U251 CNS
HL-60(TB) leukemia = test system: HL-60(TB) leukemia
HCT-15 colon = test system: HCT-15 colon
M14 melanoma = test system: M14 melanoma
SK-MEL-28 melanoma = test system: SK-MEL-28 melanoma
RXF 393 renal = test system: RXF 393 renal
KM12 colon = test system: KM12 colon
K-562 leukemia = test system: K-562 leukemia
OVCAR-8 ovarian = test system: OVCAR-8 ovarian
786-0 renal = test system: 786-0 renal
HOP-62 NSCLC = test system: HOP-62 NSCLC
NCI-H522 lung = test system: NCI-H522 lung
SF-539 CNS = test system: SF-539 CNS
MCF7 breast = test system: MCF7 breast
SNB-19 CNS = test system: SNB-19 CNS
HCT-116 colon = test system: HCT-116 colon
MDA-MB-231 breast = test system: MDA-MB-231 breast
OVCAR-4 ovarian = test system: OVCAR-4 ovarian
TK-10 renal = test system: TK-10 renal
CAKI-1 renal = test system: CAKI-1 renal
UO-31 renal = test system: UO-31 renal
SF-295 CNS = test system: SF-295 CNS
NCI-H460 lung = test system: NCI-H460 lung
SN12C renal = test system: SN12C renal
OVCAR-3 ovarian = test system: OVCAR-3 ovarian
UACC-257 melanoma = test system: UACC-257 melanoma
SK-MEL-2 melanoma = test system: SK-MEL-2 melanoma
SF-268 CNS = test system: SF-268 CNS
NCI-H226 lung = test system: NCI-H226 lung
NCI/ADR-RES ovarian = test system: NCI/ADR-RES ovarian
SNB-75 CNS = test system: SNB-75 CNS
EKVX NSCLC = test system: EKVX NSCLC
T-47D breast = test system: T-47D breast
UACC-62 melanoma = test system: UACC-62 melanoma
DU-145 prostate = test system: DU-145 prostate
NCI-H23 lung = test system: NCI-H23 lung
SW-620 colon = test system: SW-620 colon
MOLT-4 leukemia = test system: MOLT-4 leukemia
LOX IMVI melanoma = test system: LOX IMVI melanoma
HT29 colon = test system: HT29 colon
IGROV1 ovarian = test system: IGROV1 ovarian
A549 NSCLC = test system: A549 NSCLC
COLO 205 colon = test system: COLO 205 colon

Measured: TGI

C/C(=C\COP(=O)(O)OP(=O)(O)O)CCCOCc1ccccc1
> 100 µM: SK-OV-3 ovarian | RPMI-8226 leukemia | OVCAR-5 ovarian | SR leukemia | PC-3 prostate | HS 578T breast | ACHN renal | SK-MEL-5 melanoma | MDA-MB-435 | MALME-3M melanoma | U251 CNS | HL-60(TB) leukemia | HCT-15 colon | M14 melanoma | SK-MEL-28 melanoma | RXF 393 renal | KM12 colon | K-562 leukemia | OVCAR-8 ovarian | 786-0 renal | HOP-62 NSCLC | NCI-H522 lung | SF-539 CNS | MCF7 breast | SNB-19 CNS | HCT-116 colon | MDA-MB-231 breast | OVCAR-4 ovarian | TK-10 renal | CAKI-1 renal | UO-31 renal | SF-295 CNS | NCI-H460 lung | SN12C renal | OVCAR-3 ovarian | UACC-257 melanoma | SK-MEL-2 melanoma | SF-268 CNS | NCI-H226 lung | NCI/ADR-RES ovarian | SNB-75 CNS | EKVX NSCLC | T-47D breast | UACC-62 melanoma | DU-145 prostate | NCI-H23 lung | SW-620 colon | MOLT-4 leukemia | LOX IMVI melanoma | HT29 colon | IGROV1 ovarian | A549 NSCLC | COLO 205 colon
